The values that follow come from patent US20250283800A1, “PROBES FOR FLUORESCENCE IMAGING” (The General Hospital Corporation, priority 2022, published 2025).

Data set [1] has as its system human FFPE tonsil sections. As to the kind of experiment: Multiplexed tissue imaging and quenching in FFPE tonsil sections. The method, then: FIG. 23. Quenching can be spatially controlled. A. Focused local quenching experiment (top) in tonsil tissue sections using an epifluorescent microscope. Local quenching was performed using a 40× magnification (DAPI, 8 s) and read-out was performed with 10× magnification (647 nm channel). (<90%) of fixed human tonsil stained with CD45-FLASH-off 650. Whole sample quenching (bottom) was achieved by soaking the sample with buffer at pH=8.4 and using an external 405 nm lamp placed at about 1 cm distance for 2 min. Scale bar=[…] (top), […] (bottom).
Human tissue sections. De-identified formaldehyde-fixed paraffin-embedded tissue sections were commercially obtained from Biomax (HuFOT161, Biomax). Tissue sections were de-paraffinized, rehydrated, and antigen-retrieved in pH 9antigen retrieval buffer. Then sections were blocked with Intercept Blocking buffer (LI-COR) for 30 min before antibody staining for FLASH-off FFPE. Tissues were incubated with FLASH-off antibody conjugates for 30 minutes followed by rinses. […]
We prepared four antibody-FLASH-off conjugates that recognize human immune markers including CD45, CD11c, CD11b, and Pan-CK. […] Regions of high immune cell density were localized and the location of the selected immune markers was assessed within the distinctive morphological structures of tonsils tissue. […]

The nature of data set [2]: Fluorescence emission before/after photolysis at pH=8 (spectroscopic studies of photo reactions). In kind it is physicochemical. The method, then:
FIG. 16. Spectroscopic studies of photo reactions for different FLASH-off probes. A. Schematic depiction of the photo reactions for FLASH-off 500-650 (1a-d respectively) with the absorbance and emission spectra scans of the photo reactions (5 μM) in (citric acid+Na2HPO4 buffer, pH=8) before (red) and after (dark) irradiation 1 min 365 nm lamp. All spectra were taken in triplicates. B. Pictures of solutions of panel A in white light (top and bottom) and under UV light (middle).
Photolysis experiments. Solutions for compounds 1a-d were made in the corresponding buffers (pH=3-8) at a concentration of 1-100 μM. The samples were irradiated using different UV light sources (i) LED light source (405 nm, 1.14 mW cm^−2, LuxeonStar SZ-05-U3); UV lamp (˜365 nm, 0.32 mW cm^−2; UVL-28 EL Series, UVP) at different power and time settings (1 s-5 min). Fluorescence intensity was measured at the corresponding λmax of emission before irradiation (t=0 min) and after irradiation (t=1, 2, 3, and 5 min). The data were plotted as the integrated fluorescence intensity normalized to the initial intensity (I=1).

In the case of `N=C(N)c1ccc(-c2cc3ccc(C(=N)N)cc3[nH]2)cc1` [DAPI], the “signal intensity of non-photoquenchable stains after UV light irradiation” value in data set [1] is on record as “without causing an apparent decrease in signal intensity”.
Take `CNC(=O)c1ccccc1Cc1c2ccc(=N)c(S(=O)(=O)O)c-2oc2c(S(=O)(=O)O)c(N)ccc12` [Compound 7a]: the “spirocyclization with increasing pH” value in data set [2] is “did not proceed with increasing pH”.
